Our source for the EC50 values is ChEMBL document CHEMBL3621171, “Synthesis and evaluation of 8,4'-dideshydroxy-leinamycin revealing new insights into the structure-activity relationship of the anticancer natural product leinamycin” (Bioorg Med Chem Lett, 2015).

SMILES strings stand for the structures.

Common to all, as to format: functional, cell-based
The test system of one assay is T47D. Description: Cytotoxicity against human T47D cells after 4 days by MTT assay. Particulars: 96 h. In general terms: Formazan colour is commonly taken as a measure of viable cells.
The subject of another assay is MDA-MB-231. Description: Cytotoxicity against human MDA-MB-231 cells after 4 days by MTT assay. Particulars: MDA-MB-231, 96 h.
The next assay deals with MCF7. Description: Cytotoxicity against human MCF7 cells after 4 days by MTT assay. Particulars: MCF7, 96 h.
The next assay deals with A-375. Description: Cytotoxicity against human A375 cells after 4 days by MTT assay. Particulars: A-375, 96 h.
The subject of another assay is Raji. Description: Cytotoxicity against human Raji cells after 4 days by MTT assay. Particulars: 96 h.
Assay [1] in a line: Cytotoxicity against human SKBR cells after 4 days by MTT assay. Particulars: 96 h.

What is called EC50 is the concentration at which the effect is half-maximal. A lower EC50 goes with higher potency in that assay. For `C/C1=C\CC(=O)/C=C/C=C\c2csc(n2)[C@@H](C)NC(=O)C[C@@](S)([C@@H](C)C(=O)O)CC1`, the 50% effective concentration (EC50) (in the assay with T47D; in the assay on MDA-MB-231; with MCF7; in the assay on A-375; in the assay with Raji; in assay [1]) was > 10000 nM throughout.

With `C/C1=C\CC(=O)/C=C/C=C\c2csc(n2)[C@@H](C)NC(=O)C[C@@]2(CC1)SC(=O)[C@@H]2C`, the EC50 is > 10000 nM in the assay with T47D; 1950 nM with MDA-MB-231; 8560 nM in the assay with MCF7; > 10000 nM with A-375; > 10000 nM in the assay with Raji; 7370 nM in assay [1].

Turning to `C/C1=C\CC(=O)/C=C/C=C\c2csc(n2)[C@@H](C)NC(=O)C[C@@]2(CC1)SSC(=O)[C@@H]2C`, the half-maximal effective concentration (EC50) with T47D is > 10000 nM; with MDA-MB-231 it was > 10000 nM; in the assay with MCF7, > 10000 nM; with A-375 it was > 10000 nM; in the assay with Raji, 48.7 nM; in assay [1] it was > 10000 nM.

In the case of `C/C1=C\CC(=O)/C=C/C=C\c2csc(n2)[C@@H](C)NC(=O)C[C@]2(CC1)[C@@H](C)C(=O)S[S+]2[O-]` (stereo not given in full), the EC50 in the assay on T47D amounted to 196 nM; in the assay with MDA-MB-231, 71.4 nM; in the assay on MCF7, 275 nM; in the assay on A-375, 12.5 nM; with Raji it was 8.21 nM; in assay [1], 251 nM.

Take `C/C1=C\[C@@H](O)C(=O)/C=C/C=C\c2csc(n2)[C@@H](C)NC(=O)C[C@@]2(CC1)[S+]([O-])SC(=O)[C@]2(C)O` (stereo not given in full) [LEINAMYCIN]: the EC50 came to 15.2 nM in the assay on T47D; 8.99 nM in the assay on MDA-MB-231; 42.4 nM in the assay on MCF7; 4.69 nM in the assay on A-375; 6.29 nM in the assay on Raji; 52.3 nM in assay [1].
